Legend:
[1] = system: differentiated P19 neurons; test: Differentiated P19 excitotoxicity assay: neuroprotection by known kinase inhibitors against glutamate/glycine (Alamar Blue, CFDA); format: cell-based, murine; settings: for IC50: read-out: IC50 for Neuroprotection [lower-upper 95% C.I.]
Procedure: Data points are the average±standard error of three separate experiments.
These cells were used to measure the effects of various known kinase inhibitors (Compound Identification (ID) column in Table I) upon cytotoxicity-induced by NMDA. First, P19 cells were differentiated as described in Example 2. Then cells were exposed to 3 mM of glutamate in the presence of 1 mM glycine.
Cell viability was determined. Compounds that prevented excitotoxicity were determined by measuring the percentage of viable cells compared to differentiated P19 cells that were not presented with a toxic insult (Table I).
Cell viability was measured using two methods. The first method was a confocal, single-cell fluorescence imaging-based method using the live cell dye carboxy-fluorescein diacetate (CFDA). CFDA labels the cell bodies and processes of living cells. […] CFDA fluorescence was measured using a modified Attofluor Imager device (Atto Instruments, Rockville Pike, Md.). Cells were labeled with 1 uM CFDA for 15 min in media, then placed onto the stage of the Attofluor microscope. The dye was excited by light from a mercury lamp source passed through a 488 nm bandpass filter of 10 nm band width, passed through a CARV real-time confocal spinning disk module (Atto Instruments, Rockville, Md.), and then passed through a 40×oil immersion objective (Zeiss Fluar, NA=1.3). Emitted light was transmitted through a 495 nm dichroic mirror, collected to an Attofluor intensified CCD camera, and images were visualized using Attofluor Ratio Vision software (Atto Instruments, Rockville, Md.).
(§1) The second method for measuring cell viability was a plate reader method. Cells plated into black 96 well plates (Packard viewplates) were loaded with 5% Alamar Blue dye (Biosource International). Alamar Blue is a dye that takes advantage of mitochondrial reductases to convert non-fluorescent resazurin to fluorescent resorufin (excitation 535 nm, emission 580 nm). Baseline fluorescence counts were read at room temperature in a Wallac plate reader immediately after addition of Alamar blue. Fluorescence counts of cell viability were taken the same way after 1 hour incubation at 37° C. Fluorescence was expressed as a percent of control, untreated cells after subtraction of background fluorescence. Live/dead cells were confirmed visually with a light microscope.
Kinase inhibition activities and potencies were derived from the literature (Chijiwa et al. 1990; Favata et al. 1998; Henry et al. 1998; Inhorn and Majerus 1987; Kobayashi et al. 1989; Lee et al. 1994; Onoda et al. 1989; Tokumitsu et al. 1990). […] Curves were fit, and confidence intervals were determined using GraphPad Prism software.

[2] = biological target: CAMKII; settings: read-out: Potency, Ki, CAMKII; cited from earlier work
[3] = system: differentiated P19 neurons; test: Drug screening using differentiated P19 cell assay (neuroprotection against 3 mM glutamate and 1 mM glycine); format: cell-based, murine; settings: Mus musculus, Neuron; dose response 0.005-3 μM; >1 = no observed maximum within highest dose tested (3 μM)
Procedure: Commercially available chemical libraries (BioFocus PLC, UK) were screened using the methods described herein. The stock concentration of the compounds was about 400 μM in DMSO. The concentration of compounds used in the primary screen was 1 μM. […] Columns 4-11 received compounds at the following final concentrations (μM): 3, 1.2, 0.48, 0.192, 0.077, 0.031, 0.012 and 0.005. Each row contained a different compound for confirmation. Only rows B-G received compounds, and rows A and H remained untreated.
Only the 4-pyrimidinamines are the subject of this invention, although limited data for 2-pyridinamines are presented as well. “% Inh” indicates the percentage of control cells surviving after 24 hours, and represents the neuroprotective effect of the compounds screened at 1 micromolar concentration. IC50 relate to data from dose response experiments. […] ND refers to compounds not tested in dose-response experiments.
The representative compounds listed in Tables IX<X, XI and XII were tested according to the procedure described in Example 5 with results as listed in Table XIII. Unless otherwise noted, molecular weights were measure on a Hewlitt-Packard Series 1050 Chemical Ionization mass spectrometer.

[4] = system: Male Wistar rats; test: Transient model of cerebral ischemia in rats (lesion volume); format: in vivo, rat; settings: 1 hr post ischemia onset, 24 h, average of 12
Procedure: Male Wistar rats (Iffa Crédo, France), weighing 250-300 g, were housed 2 per cage under a light-dark cycle of 12 hr-12 hr (light on at 7:00 a.m., off at 7:00 p.m.) at a room temperature of 21±2° C., with 50±15% humidity, for a minimum of 5 days before the experiments. During this time, the rats had free access to commercial rat chow (Trouw Nutrition France, Vigny, France, ref. 811002) and tap water.
The animals were anaesthetized with 5% halothane in air for induction, then 1-2% halothane during surgery. The rat's body temperature was maintained at 37° C. with a heating pad. A 2 cm incision was made at the center of the neck and the right common carotid artery (CCA), external carotid artery (ECA) and internal carotid artery (ICA) were exposed under an operating microscope. The ICA was further dissected to identify the pterygopalatine artery (PA) branch and the intracranial ICA branch. The CCA was ligated. A 3-0 silk suture was tied at the origin of the ECA and ligated. A catheter (id=0.58 mm) was introduced into the CCA through a small puncture and advanced to the intracranial branch of the ICA. A 4-0 surgical nylon suture was introduced into the catheter. A length of approximately 19 mm of nylon suture was gently advanced from the CCA into the lumen of the ICA until the suture blocked the origin of the MCA. The suture was sealed into the catheter by heat, leaving 1 cm of catheter protruding so the suture could be withdrawn to allow reperfusion. The incision was closed using skin clips. Anaesthesia was then terminated and the animals were placed under heat lamps until recovery from anaesthesia. The rats awakened 10-15 min later. After 2 hr of ischemia, reperfusion was performed by withdrawal of the suture until the tip cleared the ICA lumen. Vehicle or test compound was administered intraperitoneally (i.p.) or intravenously (i.v.) at 1 hr post ischemia onset.
24 h after the onset of occlusion, the rats were killed by decapitation. The brains were immediately removed, frozen in isopentane and stored at −20° C. The brains were then cut in 20 μm thick sections in a cryocut. Every 20th slice was used to measure infarct area. The sections were stained with cresyl violet and the areas of infarct in the striatum and cortex were determined by planimetry using an image analysis software (Image, NIH) after digitalization of the section images.
Following the procedure described above, MK-801, compound #46 and compound #264 (as listed in the Tables herein) were evaluated for neuroprotective effects in rats with results as listed in Table VIII. The data represent average lesion volume in mm^3 for 12 measurements. Vehicle used was 15% solutol in 5% dextrose.

[5] = system: P19 neurons; test: P19 neuron viability / toxicity by Alamar blue fluorescence; format: cell-based, murine
Procedure: Alamar Blue fluorescence, an indicator of cell viability, was used to determine cell viability after an NMDA-induced cytotoxic insult. […] However, since raw fluorescence counts vary from experiment to experiment, FIGS. 2A, 2B, and 2C are expressed as a percent of control.
Glutamate toxicity dose response in the presence of a constant 1 mM glycine concentration was measured in the differentiated P19 neurons. The curve generated through the data points is the average of 6 separate dose response curves. Data points are represented as the percent of control cells±standard error. % control=(([Glutamate]exp−[Glutamate]max)/(Controlvehicle−[Glutamate]max))×100.
as §1
Cells were then assayed for Alamar blue fluorescence. The curve generated through the data points is the average of 3 separate dose response curves. Data points are represented as percent of control cells±standard error.

[6] = system: NMDA receptor-mediated intracellular calcium response; test: Fura-2 imaging of glutamate/glycine-induced intracellular calcium response in P19 neurons; format: cell-based, murine; settings: 100 μM MK-801, 24 hours prior to assay; 3 mM glutamate, 1 mM glycine
Procedure: MK-801 was administered 24 hours prior to assay. […] MK-801 concentrations are expressed as 10^−x Molar. […] (FIG. 1B).
U0126 was administered concurrently with glutamate and glycine.

[7] = biological target: NMDA receptor (Mus musculus, UniProt P35436+P35438+Q01097); settings: P19 membranes, concentration-dependent
Procedure: MK-801 inhibition of [^3H]-MK-801 binding was assayed in P19 membranes. MK-801 concentrations are expressed as 10^−x Molar. Data points represent the mean±standard error from eight experiments. % control=((CPM−CPMbottom)/(CPMtop−CPMbottom))×100.

[8] = biological target: EGF receptor (Homo sapiens, UniProt P00533); settings: read-out: Potency, IC50, EGF receptor; cited from earlier work
[9] = biological target: p60^c-src (Homo sapiens, UniProt P12931); settings: read-out: Potency, IC50, p60^c-src; cited from earlier work
[10] = system: P19 neurons; test: Post-treatment time course of neuroprotection in P19 neurons (delayed neuroprotection); format: cell-based, murine; settings: compound added after glutamate challenge
Text: Time-course of efficacy is an extremely relevant parameter for a potential neuroprotective therapeutic agent, since the therapeutic would need to be administered hours to days after an ischemic event and still retain efficacy.

[11] = biological target: T1, PKG (Homo sapiens, UniProt Q13976); settings: read-out: Potency, IC50, PKG; cited from earlier work
T1 sequence (Q13976 1-671): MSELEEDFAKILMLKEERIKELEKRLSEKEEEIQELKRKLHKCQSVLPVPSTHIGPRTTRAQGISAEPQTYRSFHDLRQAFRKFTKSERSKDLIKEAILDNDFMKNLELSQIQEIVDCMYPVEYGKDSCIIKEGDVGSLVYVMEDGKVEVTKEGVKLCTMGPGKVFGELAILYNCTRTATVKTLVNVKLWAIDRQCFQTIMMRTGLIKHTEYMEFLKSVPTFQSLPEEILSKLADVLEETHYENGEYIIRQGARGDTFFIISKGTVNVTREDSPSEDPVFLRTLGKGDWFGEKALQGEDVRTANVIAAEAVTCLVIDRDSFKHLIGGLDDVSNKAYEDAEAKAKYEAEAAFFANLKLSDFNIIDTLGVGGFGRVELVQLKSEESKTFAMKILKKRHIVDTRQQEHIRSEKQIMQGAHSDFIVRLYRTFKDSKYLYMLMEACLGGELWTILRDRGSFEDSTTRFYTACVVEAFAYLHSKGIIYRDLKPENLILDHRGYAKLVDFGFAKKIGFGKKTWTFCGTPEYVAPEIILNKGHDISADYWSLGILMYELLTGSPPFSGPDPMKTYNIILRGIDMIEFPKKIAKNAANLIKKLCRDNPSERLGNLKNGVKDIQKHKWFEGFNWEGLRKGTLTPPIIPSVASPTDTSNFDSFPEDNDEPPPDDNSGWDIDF

[12] = system: PKC; settings: read-out: Potency, IC50, PKC; cited from earlier work
[13] = biological target: PKA (Homo sapiens, UniProt P17612); settings: read-out: Potency, IC50, PKA; cited from earlier work
[14] = 3 mM glutamate, 1 mM glycine, mean of three separate curves

p60^c-src, sequence (P12931 whole entry): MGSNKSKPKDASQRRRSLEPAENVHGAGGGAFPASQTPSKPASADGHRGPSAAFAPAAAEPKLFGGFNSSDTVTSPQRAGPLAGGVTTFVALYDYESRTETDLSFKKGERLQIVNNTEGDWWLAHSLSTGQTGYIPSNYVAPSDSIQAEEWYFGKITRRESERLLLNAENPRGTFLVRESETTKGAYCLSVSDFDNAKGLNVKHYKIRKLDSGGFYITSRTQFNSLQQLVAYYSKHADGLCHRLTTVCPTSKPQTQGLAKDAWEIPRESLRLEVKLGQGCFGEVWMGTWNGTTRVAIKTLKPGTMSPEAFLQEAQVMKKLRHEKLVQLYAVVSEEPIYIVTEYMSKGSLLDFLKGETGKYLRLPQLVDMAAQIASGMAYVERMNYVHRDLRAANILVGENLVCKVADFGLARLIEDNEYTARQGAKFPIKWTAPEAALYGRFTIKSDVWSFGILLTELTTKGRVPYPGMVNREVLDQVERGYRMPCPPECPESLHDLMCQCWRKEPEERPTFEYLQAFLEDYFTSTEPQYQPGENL
EGF receptor, sequence (P00533 25-1210): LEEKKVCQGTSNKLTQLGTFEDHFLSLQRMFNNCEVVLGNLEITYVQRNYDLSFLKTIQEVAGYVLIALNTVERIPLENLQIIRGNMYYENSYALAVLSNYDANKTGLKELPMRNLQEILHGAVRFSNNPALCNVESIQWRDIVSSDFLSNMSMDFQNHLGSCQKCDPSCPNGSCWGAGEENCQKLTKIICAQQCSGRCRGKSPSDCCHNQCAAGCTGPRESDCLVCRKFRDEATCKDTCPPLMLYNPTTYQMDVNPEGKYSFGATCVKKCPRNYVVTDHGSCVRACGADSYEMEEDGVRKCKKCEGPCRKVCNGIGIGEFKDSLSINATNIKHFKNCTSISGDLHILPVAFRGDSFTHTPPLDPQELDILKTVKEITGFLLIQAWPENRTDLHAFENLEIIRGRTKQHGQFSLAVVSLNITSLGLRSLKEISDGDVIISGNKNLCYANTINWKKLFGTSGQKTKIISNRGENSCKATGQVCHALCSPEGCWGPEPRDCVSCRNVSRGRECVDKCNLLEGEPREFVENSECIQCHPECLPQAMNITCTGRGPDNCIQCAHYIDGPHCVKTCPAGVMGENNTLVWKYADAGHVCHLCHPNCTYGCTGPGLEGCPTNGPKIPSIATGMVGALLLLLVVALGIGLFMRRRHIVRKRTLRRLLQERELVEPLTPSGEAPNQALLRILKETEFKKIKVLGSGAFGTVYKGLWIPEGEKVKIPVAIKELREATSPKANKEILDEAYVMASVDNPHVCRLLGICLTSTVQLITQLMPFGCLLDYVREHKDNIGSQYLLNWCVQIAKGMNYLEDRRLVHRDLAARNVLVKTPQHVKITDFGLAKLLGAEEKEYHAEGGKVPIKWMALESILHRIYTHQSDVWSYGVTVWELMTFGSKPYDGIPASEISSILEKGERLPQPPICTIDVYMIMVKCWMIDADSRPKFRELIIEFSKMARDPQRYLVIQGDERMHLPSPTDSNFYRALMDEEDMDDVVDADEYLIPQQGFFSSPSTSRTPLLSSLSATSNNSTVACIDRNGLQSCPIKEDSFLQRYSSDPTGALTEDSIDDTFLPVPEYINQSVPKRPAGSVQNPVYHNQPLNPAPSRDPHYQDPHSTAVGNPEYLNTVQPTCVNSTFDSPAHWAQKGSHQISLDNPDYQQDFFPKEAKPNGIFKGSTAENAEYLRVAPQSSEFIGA
NMDA receptor, sequence (P35436 23-1464, other chains not shown): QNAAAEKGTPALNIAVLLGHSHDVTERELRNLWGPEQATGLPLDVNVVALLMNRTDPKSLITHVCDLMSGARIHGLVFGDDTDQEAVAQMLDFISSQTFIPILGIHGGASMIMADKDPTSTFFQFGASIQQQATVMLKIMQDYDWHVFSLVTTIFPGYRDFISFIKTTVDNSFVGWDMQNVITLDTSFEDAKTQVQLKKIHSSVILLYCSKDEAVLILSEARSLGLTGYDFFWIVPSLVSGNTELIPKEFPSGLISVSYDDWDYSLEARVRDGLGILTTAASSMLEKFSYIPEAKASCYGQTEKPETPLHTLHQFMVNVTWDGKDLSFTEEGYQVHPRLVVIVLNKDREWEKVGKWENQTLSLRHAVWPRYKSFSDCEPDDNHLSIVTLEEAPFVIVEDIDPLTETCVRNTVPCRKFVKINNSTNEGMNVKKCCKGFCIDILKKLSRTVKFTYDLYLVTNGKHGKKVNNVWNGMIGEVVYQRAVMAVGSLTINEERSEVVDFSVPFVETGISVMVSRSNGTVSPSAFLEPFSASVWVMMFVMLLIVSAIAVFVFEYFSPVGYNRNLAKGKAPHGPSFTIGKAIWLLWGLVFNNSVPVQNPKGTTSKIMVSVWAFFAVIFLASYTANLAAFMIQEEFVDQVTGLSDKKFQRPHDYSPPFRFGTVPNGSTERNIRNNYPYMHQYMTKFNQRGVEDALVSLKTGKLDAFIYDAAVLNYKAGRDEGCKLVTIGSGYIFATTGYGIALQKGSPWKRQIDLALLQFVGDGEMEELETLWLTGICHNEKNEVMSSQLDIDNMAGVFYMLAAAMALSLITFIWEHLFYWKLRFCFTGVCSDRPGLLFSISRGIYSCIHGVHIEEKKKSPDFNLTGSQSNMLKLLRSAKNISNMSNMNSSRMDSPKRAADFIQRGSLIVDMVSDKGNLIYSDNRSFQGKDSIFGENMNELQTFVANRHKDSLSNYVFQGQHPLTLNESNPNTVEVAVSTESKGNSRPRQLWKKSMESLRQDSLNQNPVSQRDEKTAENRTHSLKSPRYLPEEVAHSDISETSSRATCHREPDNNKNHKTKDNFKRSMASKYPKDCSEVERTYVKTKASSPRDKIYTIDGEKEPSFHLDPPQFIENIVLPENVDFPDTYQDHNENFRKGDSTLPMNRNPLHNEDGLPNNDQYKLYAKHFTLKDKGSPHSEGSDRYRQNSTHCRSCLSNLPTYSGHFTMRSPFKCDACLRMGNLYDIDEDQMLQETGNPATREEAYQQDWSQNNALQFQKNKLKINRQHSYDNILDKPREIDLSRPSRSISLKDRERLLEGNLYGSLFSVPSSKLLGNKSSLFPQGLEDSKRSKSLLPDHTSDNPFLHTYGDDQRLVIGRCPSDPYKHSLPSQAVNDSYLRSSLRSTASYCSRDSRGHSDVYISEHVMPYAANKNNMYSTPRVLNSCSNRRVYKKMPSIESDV
NMDA receptor, sequence (Q01097 27-1482, other chains not shown): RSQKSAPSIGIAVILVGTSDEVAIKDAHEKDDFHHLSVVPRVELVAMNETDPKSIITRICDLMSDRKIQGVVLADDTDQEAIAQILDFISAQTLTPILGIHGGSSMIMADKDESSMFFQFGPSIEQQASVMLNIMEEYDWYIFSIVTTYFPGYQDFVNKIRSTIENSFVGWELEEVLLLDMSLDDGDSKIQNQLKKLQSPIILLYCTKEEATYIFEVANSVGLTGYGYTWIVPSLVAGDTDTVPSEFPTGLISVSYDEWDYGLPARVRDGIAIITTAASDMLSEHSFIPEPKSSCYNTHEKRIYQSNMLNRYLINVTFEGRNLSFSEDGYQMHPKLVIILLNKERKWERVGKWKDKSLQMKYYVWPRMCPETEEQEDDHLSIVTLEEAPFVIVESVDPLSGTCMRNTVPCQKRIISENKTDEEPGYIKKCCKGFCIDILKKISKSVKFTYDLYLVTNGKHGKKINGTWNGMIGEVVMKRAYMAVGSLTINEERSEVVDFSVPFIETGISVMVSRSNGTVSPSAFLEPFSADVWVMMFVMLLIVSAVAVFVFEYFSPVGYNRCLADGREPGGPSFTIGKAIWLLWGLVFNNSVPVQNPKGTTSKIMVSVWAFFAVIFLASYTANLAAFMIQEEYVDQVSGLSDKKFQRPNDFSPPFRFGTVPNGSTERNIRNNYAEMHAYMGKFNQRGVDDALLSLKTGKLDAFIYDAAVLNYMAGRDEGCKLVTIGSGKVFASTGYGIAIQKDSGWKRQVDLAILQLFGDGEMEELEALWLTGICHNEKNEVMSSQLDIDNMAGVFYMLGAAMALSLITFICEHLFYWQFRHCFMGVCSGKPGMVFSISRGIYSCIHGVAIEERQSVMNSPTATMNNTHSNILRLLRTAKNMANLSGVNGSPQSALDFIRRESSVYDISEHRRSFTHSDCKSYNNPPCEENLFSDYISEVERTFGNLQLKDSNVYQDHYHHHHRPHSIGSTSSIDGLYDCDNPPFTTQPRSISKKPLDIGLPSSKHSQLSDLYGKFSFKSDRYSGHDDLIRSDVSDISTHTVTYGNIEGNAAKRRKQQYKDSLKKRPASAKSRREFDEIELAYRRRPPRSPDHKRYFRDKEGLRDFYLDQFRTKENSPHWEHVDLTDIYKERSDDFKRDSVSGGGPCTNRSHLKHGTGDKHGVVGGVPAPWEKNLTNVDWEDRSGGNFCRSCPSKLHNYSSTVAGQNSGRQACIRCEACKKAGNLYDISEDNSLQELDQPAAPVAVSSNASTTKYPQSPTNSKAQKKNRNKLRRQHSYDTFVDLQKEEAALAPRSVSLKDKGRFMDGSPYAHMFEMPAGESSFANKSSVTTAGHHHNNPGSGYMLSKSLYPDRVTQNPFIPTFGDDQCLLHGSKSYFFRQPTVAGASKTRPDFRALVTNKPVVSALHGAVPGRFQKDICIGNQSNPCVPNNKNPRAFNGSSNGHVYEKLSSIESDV

CN([C@@H](Cc1ccc(OS(=O)(=O)c2cccc3cnccc23)cc1)C(=O)N1CCN(c2ccccc2)CC1)S(=O)(=O)c1cccc2cnccc12 [KN62]
Maximal Efficacy for Neuroprotection ([1]; 3 mM glutamate, 1 mM glycine): <10% | IC50 for Neuroprotection [lower-upper 95% C.I.] [1, 14]: Ineffective | Ki [2]: ~0.9 µM

CCN(CCO)c1ccc(Nc2cc(-c3cccc(-c4ccccc4)c3)ncn2)cc1 [Cmpd 46, ethanol, 2-[[4-[(6-[1,1′-biphenyl]-3-yl-4-pyrimidinyl)amino]phenyl]ethylamino]-]
IC50 [3]: 0.07 µM | Cortex + Striatum Vol. (mm^3) ([4]; 0.6 mg/kg, i.v.): 326.6 ± 26.0 mm^3 | Cortex Vol. (mm^3) ([4]; 0.6 mg/kg, i.v.): 247.6 ± 24.8 mm^3 | Striatum Vol. (mm^3) ([4]; 0.6 mg/kg, i.v.): 79.1 ± 3.0 mm^3 | Cortex + Striatum Vol. (mm^3) ([4]; 3 mg/kg, i.v.): 290.8 ± 28.1 mm^3 | Cortex Vol. (mm^3) ([4]; 3 mg/kg, i.v.): 214.7 ± 26.6 mm^3 | Striatum Vol. (mm^3) ([4]; 3 mg/kg, i.v.): 76.1 ± 2.8 mm^3

NCC(=O)O [Glycine]
effect on basal P19 neuron viability, substance alone ([5]; no inducer of toxicity (U0126: 10 μM)): did not affect P19 neuron viability

C[C@]12N[C@H](Cc3ccccc31)c1ccccc12 [MK-801, reference compound]
Maximal protection against glutamate toxicity ([1]; 3 mM glutamate and 1 mM glycine): close to control levels | Cortex + Striatum Vol. (mm^3) ([4]; 3 mg/kg, i.p.): 205.4 ± 28.0 mm^3 | Cortex Vol. (mm^3) ([4]; 3 mg/kg, i.p.): 135.0 ± 26.1 mm^3 | Striatum Vol. (mm^3) ([4]; 3 mg/kg, i.p.): 70.4 ± 2.9 mm^3 | effect on intracellular calcium response to NMDA receptor agonists [6]: significantly inhibited this response | inhibition of [3H]-MK-801 binding achieved [7]: 100%

O=C(O)c1cc(N(Cc2ccccc2O)Cc2cc(O)ccc2O)ccc1O [Lavendustin A]
Maximal Efficacy for Neuroprotection ([1]; 3 mM glutamate, 1 mM glycine): <25% | IC50 [1, 14]: > 10 µM | IC50 [8]: ~0.011 µM | IC50 [9]: ~0.5 µM

O=S(=O)(NCCNC/C=C/c1ccc(Br)cc1)c1cccc2cnccc12 [H-89]
Maximal Efficacy for Neuroprotection ([1]; 3 mM glutamate, 1 mM glycine): <25% | IC50 [1, 14]: > 10 µM | Ki [2]: ~30 µM

COc1cc(N)nc2[nH]c(-c3ccc(F)cc3)c(-c3ccncc3)c12 [Compound A]
time after glutamate challenge at which efficacy was lost [10]: 15 min

COc1c(C[C@@H](C)OC(=O)Oc2ccc(O)cc2)c2c3c(C[C@@H](C)OC(=O)c4ccccc4)c(OC)c(=O)c4c(O)cc(OC)c(c5c(OC)cc(O)c(c1=O)c52)c43 [Calphostin C]
IC50 [11]: > 25 µM | Maximal Efficacy for Neuroprotection ([1]; 3 mM glutamate, 1 mM glycine): ˜50% | IC50 [1, 14]: > 1 µM | IC50 [9]: > 50 µM | IC50 [12]: ~0.05 µM | IC50 [13]: > 50 µM

N[C@@H](CCC(=O)O)C(=O)O [Glutamate]
reduction in Alamar blue fluorescence ([5]; 3 mM glutamate and 1 mM glycine for 24 hours): 60% | EC50 ([5]; constant 1 mM glycine, 24 hours, average of 6 curves, read-out: Glutamate toxicity EC50): 8.1 µM

— patent publication US20040006094A1, “4-pyrimidinamine derivatives, pharmaceutical compositions and related methods” (priority 2000, published 2004)
